Measured values taken from patent publication US8124647B2 (priority 2002, dated 2012).

Legend:
human androgen receptor [1] = target: T1, human androgen receptor (Homo sapiens, UniProt P10275); assay: androgenic activity (EC50 and intrinsic activity), transactivation bioassay in CHO-AR-pMMTV-LUC cells (Table 4); type: cell-based
T1 construct: expressed in transfected cells; host or cells: CHO cells, cell line CHO-AR-pMMTV-LUC 1G12-A5-CA
T1 sequence (P10275 1-920): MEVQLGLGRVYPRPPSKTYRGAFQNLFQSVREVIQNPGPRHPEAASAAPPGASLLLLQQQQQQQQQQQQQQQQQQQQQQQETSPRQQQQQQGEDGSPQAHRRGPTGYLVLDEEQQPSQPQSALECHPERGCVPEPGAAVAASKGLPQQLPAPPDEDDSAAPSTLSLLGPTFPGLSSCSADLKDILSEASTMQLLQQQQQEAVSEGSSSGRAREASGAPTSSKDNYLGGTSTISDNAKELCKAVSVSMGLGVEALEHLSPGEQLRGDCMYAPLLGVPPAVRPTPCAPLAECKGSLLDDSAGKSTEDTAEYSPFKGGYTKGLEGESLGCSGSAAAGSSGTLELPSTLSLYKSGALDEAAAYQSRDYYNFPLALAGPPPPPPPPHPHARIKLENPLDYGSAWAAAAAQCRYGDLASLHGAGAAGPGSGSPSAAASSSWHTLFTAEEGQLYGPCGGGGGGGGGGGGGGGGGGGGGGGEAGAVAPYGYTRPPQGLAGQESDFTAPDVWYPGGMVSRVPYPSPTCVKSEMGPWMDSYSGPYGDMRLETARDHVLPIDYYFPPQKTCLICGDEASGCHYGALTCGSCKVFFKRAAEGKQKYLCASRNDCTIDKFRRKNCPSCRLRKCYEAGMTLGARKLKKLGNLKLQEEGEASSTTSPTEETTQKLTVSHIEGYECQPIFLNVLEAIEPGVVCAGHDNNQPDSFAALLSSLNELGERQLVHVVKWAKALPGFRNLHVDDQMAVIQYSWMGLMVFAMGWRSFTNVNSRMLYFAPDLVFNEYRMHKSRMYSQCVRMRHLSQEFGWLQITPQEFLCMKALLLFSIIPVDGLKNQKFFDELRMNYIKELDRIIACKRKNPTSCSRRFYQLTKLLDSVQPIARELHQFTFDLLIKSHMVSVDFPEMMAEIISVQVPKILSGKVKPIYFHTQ
Experimental: (§1) Compounds were tested for their Androgen Receptor activity in a transactivation assay and in a binding assay.
(§2) The (anti-)androgenic activity of test compounds (EC50 and intrinsic activity) was determined in an in vitro bioassay of Chinese hamster ovary (CHO) cells stably transfected with the human androgen receptor expression plasmid and a reporter plasmid in which the MMTV-promoter is linked to the luciferase reporter gene. The cell-line CHO-AR-pMMTV-LUC 1G12-A5-CA is described in Schoonen et al. (2000), Journal of Steroid Biochemistry and Molecular Biology 74(4):213-222. The antiandrogenic activity of a test compound was determined by the inhibition of the transactivation via the androgen receptor of the enzyme luciferase in the presence of 1 nM DHT (5α-dihydrotestosterone, 17β-hydroxy-5α-androstan-3-one). Intrinsic activity of antiandrogenic activity was determined in the presence of the reference antiandrogen 2-Hydroxy-2-methyl-N-(4-nitro-3-trifluoromethyl-phenyl)-propionamide(Hydroxyflutamide), and set at 100%. For androgenic activity, maximal intrinsic activity in the presence of 100 nM DHT was set at 100%.

human androgen receptor [2] = target: T1, human androgen receptor; assay: cell-based; settings: in the presence of 1 nM DHT
Experimental: as §1, §2

[3] = androgenic activity, read-out: ago EC50
[4] = antiandrogenic activity, read-out: ant EC50

| SMILES | EC50 (human androgen receptor [1]; [3]) | EC50 (human androgen receptor [2]; [4]) | EC50 (human androgen receptor [1]; ago EC50, androgenic activity) | EC50 (human androgen receptor [2]; ant EC50, antiandrogenic activity) | ant efficacy (human androgen receptor [2]; reference antiandrogen Hydroxyflutamide set at 100%) |
| --- | --- | --- | --- | --- | --- |
| COc1ccc2c(Sc3ccccc3[N+](=O)[O-])cn(Cc3cc(F)ccc3F)c2c1 [Compound 1] | 5 to 100 nM | > 10 µM |  |  |  |
| COc1ccc2c(Sc3ccccc3[N+](=O)[O-])cn(Cc3cccc(C)c3F)c2c1 [Compound 2] | < 1000 nM | > 10 µM |  |  |  |
| COc1ccc2c(Sc3ccccc3[N+](=O)[O-])cn(Cc3ccccc3Cl)c2c1 [Compound 3] | < 1000 nM | > 10 µM |  |  |  |
| COc1ccc2c(Sc3ccccc3[N+](=O)[O-])cn(Cc3ccccc3C#N)c2c1 [Compound 4] | < 1000 nM | 0.005 to 0.1 µM |  |  |  |
| COc1ccc2c(Sc3ccccc3[N+](=O)[O-])cn(Cc3ccccc3F)c2c1 [Compound 5] | < 1000 nM | > 10 µM |  |  |  |
| COc1ccc2c(Sc3ccccc3[N+](=O)[O-])cn(Cc3cccc([N+](=O)[O-])c3C)c2c1 [Compound 6] |  | > 10 µM | < 1000 nM |  |  |
| COc1ccc2c(Sc3ccccc3[N+](=O)[O-])cn(Cc3ccccc3C)c2c1 [Compound 7] | 5 to 100 nM | > 10 µM |  |  |  |
| COc1ccc2c(Sc3ccccc3[N+](=O)[O-])cn(Cc3ccccc3[N+](=O)[O-])c2c1 [Compound 8] |  |  | 5 to 100 nM | > 10 µM |  |
| COc1ccc2c(Sc3ccccc3[N+](=O)[O-])cn(Cc3ccccn3)c2c1 [Compound 9, 6-Methoxy-3-(2-nitro-phenylsulfanyl)-1-pyridin-2-ylmethyl-1H-indole] | < 5 nM | < 0.005 µM |  |  |  |
| COc1ccc2c(Sc3ccccc3[N+](=O)[O-])cn(Cc3ccccn3)c2c1.Cl [Compound 10, 6-Methoxy-3-(2-nitro-phenylsulfanyl)-1-pyridin-2-ylmethyl-1H-indole monohydrochloride] | 5 to 100 nM | > 10 µM |  |  | − (− <0.20) |
| COc1ccc2c(Sc3ccccc3[N+](=O)[O-])cn(CC3CCCCO3)c2c1 (centres unmarked) [Compound 11] | 5 to 100 nM | > 10 µM |  |  |  |
| COc1ccc2c(Sc3ccccc3[N+](=O)[O-])cn(Cc3ccccc3C(F)(F)F)c2c1 [Compound 12] | < 1000 nM | > 10 µM |  |  |  |
| COc1ccc2c(Sc3ccccc3[N+](=O)[O-])cn(Cc3cc(C)on3)c2c1 [Compound 13] | < 1000 nM | > 10 µM |  |  |  |
| COc1ccc2c(Sc3ccccc3[N+](=O)[O-])cn(Cc3ccc(Cl)c(Cl)c3)c2c1 [Compound 14] | < 1000 nM | > 10 µM |  |  |  |
| COc1ccc2c(Sc3ccccc3[N+](=O)[O-])cn(Cc3cc(Cl)cc(Cl)c3)c2c1 [Compound 15] | 5 to 100 nM | > 10 µM |  |  |  |
| COc1ccc2c(Sc3ccccc3CO)cn(Cc3cc(F)cc(F)c3)c2c1 [Compound 16, {2-[1-(3,5-Difluoro-benzyl)-6-methoxy-1H-indol-3-ylsulfanyl]-phenyl}-methanol] | 5 to 100 nM | 0.005 to 0.1 µM |  |  |  |
| CNC(=O)c1ccccc1Sc1cn(Cc2cc(F)cc(F)c2)c2cc(OC)ccc12 [Compound 17, 2-[1-(3,5-Difluoro-benzyl)-6-methoxy-1H-indol-3-ylsulfanyl]-N-methyl-benzamide] | > 10000 nM | < 1 µM |  |  |  |
| COc1ccc2c(Sc3ccccc3C(N)=O)cn(Cc3cc(F)cc(F)c3)c2c1 [Compound 18, 2-[1-(3,5-Difluoro-benzyl)-6-methoxy-1H-indol-3-ylsulfanyl]-benzamide] | 5 to 100 nM | 0.005 to 0.1 µM |  |  |  |
| COC(=O)c1ccccc1Sc1cn(Cc2cc(F)cc(F)c2)c2cc(OC)ccc12 [Compound 19, 2-[1-(3,5-Difluoro-benzyl)-6-methoxy-1H-indol-3-ylsulfanyl]-benzoic acid methyl ester] | < 1000 nM | > 10 µM |  |  |  |
| O=[N+]([O-])c1ccccc1Sc1cn(Cc2cc(F)cc(F)c2)c2ccc(O)cc12 [Compound 56] | < 5 nM |  |  |  |  |
| O=[N+]([O-])c1ccccc1Sc1cn(Cc2cc(F)cc(F)c2)c2cc(O)ccc12 [Compound 61, 1-(3,5-Difluoro-benzyl)-3-(2-nitro-phenylsulfanyl)-1H-indol-6-ol] | < 5 nM |  |  |  |  |
